In ChEMBL document CHEMBL1687760, “Secondary integrase resistance mutations found in HIV-1 minority quasispecies in integrase therapy-naive patients have little or no effect on susceptibility to integrase inhibitors” (Antimicrob Agents Chemother, 2010):

Tests used:
Type in all cases: functional
[1] = system: Human immunodeficiency virus 1; assay: Antiviral activity against Human immunodeficiency virus 1 3B harboring integrase V151I mutant infected in human MT4 cells assessed as inhibition of virus induced cytopathic effect relative to wild type HIV1
[2] = system: Human immunodeficiency virus 1; assay: Antiviral activity against Human immunodeficiency virus 1 3B harboring integrase V165I mutant infected in human MT4 cells assessed as inhibition of virus induced cytopathic effect relative to wild type HIV1
[3] = system: Human immunodeficiency virus 1; assay: Antiviral activity against Human immunodeficiency virus 1 3B harboring integrase V201I mutant infected in human MT4 cells assessed as inhibition of virus induced cytopathic effect relative to wild type HIV1
[4] = system: Human immunodeficiency virus 1; assay: Antiviral activity against Human immunodeficiency virus 1 3B harboring integrase S230N mutant infected in human MT4 cells assessed as inhibition of virus induced cytopathic effect relative to wild type HIV1
[5] = system: Human immunodeficiency virus 1; assay: Antiviral activity against Human immunodeficiency virus 1 3B harboring integrase T206S mutant infected in human MT4 cells assessed as inhibition of virus induced cytopathic effect relative to wild type HIV1
[6] = system: Human immunodeficiency virus 1; assay: Antiviral activity against Human immunodeficiency virus 1 clone 18_13 harboring integrase S17N, T124N, T125A, G140S, M154I, S195C infected in human MT4 cells assessed as inhibition of virus induced cytopathic effect relative to wild type HIV1
[7] = system: Human immunodeficiency virus 1; assay: Antiviral activity against Human immunodeficiency virus 1 clone 1 harboring integrase E11D, S17T, L45V, M50I, M50T, I72V, L74I, K111T, S119G, T125A relative to wild type HIV1
[8] = system: Human immunodeficiency virus 1; assay: Antiviral activity against Human immunodeficiency virus 1 clone 7 harboring integrase E11D, S17T, L45V, M50T, I72V, L74I, K111T, T125A relative to wild type HIV1
[9] = system: Human immunodeficiency virus 1; assay: Antiviral activity against Human immunodeficiency virus 1 clone 8 harboring integrase E11D, S17T, L45V, M50T, S57G, L74I, K111T, S119G, T125A relative to wild type HIV1
[10] = system: Human immunodeficiency virus 1; assay: Antiviral activity against Human immunodeficiency virus 1 clone 9 harboring integrase E11D, S17T, L45V, M50T, I72V, L74I, K111T, S119G, relative to wild type HIV1
[11] = system: Human immunodeficiency virus 1; assay: Antiviral activity against Human immunodeficiency virus 1 clone 12 harboring integrase E11D, S17T, L45V, M50T, I72V, L74I, K111T, S119G, T125A relative to wild type HIV1
[12] = system: Human immunodeficiency virus 1; assay: Antiviral activity against Human immunodeficiency virus 1 clone 4 harboring integrase S17N, S57G, I84I, T124N, T125A, M154I, S195C mutant gene relative to wild type HIV1
[13] = system: Human immunodeficiency virus 1; assay: Antiviral activity against Human immunodeficiency virus 1 clone 11 harboring integrase S17N, I84I, T124N, T125A, M154I, S195C mutant gene relative to wild type HIV1
[14] = system: Human immunodeficiency virus 1; assay: Antiviral activity against Human immunodeficiency virus 1 clone 15 harboring integrase S17N, I84I, T124N, T125A, M154I, S195C mutant gene relative to wild type HIV1
[15] = system: Human immunodeficiency virus 1; assay: Antiviral activity against Human immunodeficiency virus 1 clone 17 harboring integrase S17N, T124N, T125A, M154I, S195C mutant gene relative to wild type HIV1
[16] = system: Human immunodeficiency virus 1; assay: Antiviral activity against Human immunodeficiency virus 1 clone 2 harboring integrase R20K, A23V, E92G, T124N, I141V, G193E, V201I, T206S, I220V, D279G mutant gene relative to wild type HIV1
[17] = system: Human immunodeficiency virus 1; assay: Antiviral activity against Human immunodeficiency virus 1 3B harboring integrase I72V mutant infected in human MT4 cells assessed as inhibition of virus induced cytopathic effect relative to wild type HIV1
[18] = system: Human immunodeficiency virus 1; assay: Antiviral activity against Human immunodeficiency virus 1 clone 17 harboring integrase R20K, A23V, T124N,A129T, I141V, I62T, G193E, V201I, T206S, I220V, D279G mutant gene relative to wild type HIV1
[19] = system: Human immunodeficiency virus 1; assay: Antiviral activity against Human immunodeficiency virus 1 clone 19 harboring integrase R20K, A23V, G70E, T124N, I141V, G193E, V201I, T206S, I220V mutant gene relative to wild type HIV1
[20] = system: Human immunodeficiency virus 1; assay: Antiviral activity against Human immunodeficiency virus 1 clone 18_13 harboring integrase G140S mutant and G140S, Q148H site-directed mutation relative to wild type HIV1
[21] = system: Human immunodeficiency virus 1; assay: Antiviral activity against Human immunodeficiency virus 1 3B harboring integrase E157Q mutant infected in human MT4 cells assessed as inhibition of virus induced cytopathic effect relative to wild type HIV1
[22] = system: Human immunodeficiency virus 1; assay: Antiviral activity against Human immunodeficiency virus 1 clone 13 harboring integrase E11D, S17T, L45V, M50T, I72V, L74I, K111T, S119G, T125A relative to wild type HIV1
[23] = system: Human immunodeficiency virus 1; assay: Antiviral activity against Human immunodeficiency virus 1 3B harboring integrase L74I mutant infected in human MT4 cells assessed as inhibition of virus induced cytopathic effect relative to wild type HIV1

| Structure (SMILES) | fold change (FC) [2] | fold change (FC) [6] | fold change (FC) [7] | fold change (FC) [8] | fold change (FC) [11] | fold change (FC) [14] | fold change (FC) [16] | fold change (FC) [17] | fold change (FC) [18] | fold change (FC) [19] | fold change (FC) [20] | other results |
| --- | --- | --- | --- | --- | --- | --- | --- | --- | --- | --- | --- | --- |
| COc1cc2c(cc1Cc1cccc(Cl)c1F)c(=O)c(C(=O)O)cn2[C@H](CO)C(C)C [ELVITEGRAVIR] | 0.8 | 5.6 | 1.4 | 2.7 | 1 | 0.6 | 13 | 0.8 | 0.3 | 1.1 | >633.7 | fold change (FC) [1]: 0.6; fold change (FC) [3]: 0.9; fold change (FC) [4]: 0.8; fold change (FC) [5]: 1.1; fold change (FC) [9]: 0.8; fold change (FC) [10]: 1; fold change (FC) [12]: 1.4; fold change (FC) [13]: 0.9; fold change (FC) [15]: 1 |
| Cc1nnc(C(=O)NC(C)(C)c2nc(C(=O)NCc3ccc(F)cc3)c(O)c(=O)n2C)o1 [RALTEGRAVIR] | 0.7 | 2.4 | 1.7 | 1.5 | 1.1 | 0.7 | 1.8 | 0.9 | 0.3 | 1.2 | 768 | fold change (FC) [21]: 1.2; fold change (FC) [22]: 2; fold change (FC) [23]: 1.2 |
